Assay results published in the supplement of paper PMC11451515.

Columns and labels:
Conditions in all cases: 48 h
SEM cells [1] = experiment: AUC of viability dose-response curve (% viability x log10 dose units); higher = less sensitive
Outline: (§1)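 In 1536-well plates, leukemia cells adapted to each medium (500 or 1000 cells/well) were exposed for 48 h at 37°C to library compounds in DMSO across 11 threefold doses, 47 μM down to 0.79 nM. Viability was read by CellTiter-Glo One luminescence and normalised per plate to DMSO and cell-free wells. A four-parameter log-logistic fit over log10 doses was integrated by trapezoidal rule. This yielded the area under the curve, with over-full-viability curves scaled and quality-control failures dropped.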

P12-Ichikawa [2] = experiment: as above
Outline: as §1

NOMO1 [3] = experiment: as above
Outline: as §1

SEM cells [4] = experiment: cell viability relative to DMSO control; higher = less cytotoxic
Outline: (§2)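 Library compounds in DMSO were pin-dosed into 1536-well plates (5 μl) holding NOMO1 or SEM (500 cells/well) or P12-Ichikawa (1000 cells/well) leukemia cells, across an 11-point threefold series of 47 μM to 0.79 nM. Each cell line had been adapted for at least four passages in each medium. CellTiter-Glo One luminescence was read after 48 h at 37°C. Viability is the per-plate percentage relative to DMSO wells, with cell-free wells as background.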

P12-Ichikawa [5] = experiment: as above
Outline: as §2

NOMO1 [6] = experiment: as above
Outline: as §2

Nc1c2c(nc3ccccc13)CCCC2
AUC of viability dose-response curve
Conditions | NOMO1 [3] | P12-Ichikawa [2] | SEM cells [1]
HPLM + 10% dialyzed FBS | 352 | 434 | 431
RPMI 5 mM glucose + 10% FBS | 376 | 440 | 390
RPMI 5 mM glucose + 10% dialyzed FBS | 388 | 433 | 402

cell viability [%]
Conditions | NOMO1 [6] | P12-Ichikawa [5] | SEM cells [4]
HPLM + 10% dialyzed FBS, 0.000781 µM | 129 | 119 | 92.9
HPLM + 10% dialyzed FBS, 0.00234 µM | 105 | 119 | 104
HPLM + 10% dialyzed FBS, 0.00702 µM | 122 | 112 | 118
HPLM + 10% dialyzed FBS, 0.0211 µM | 125 | 111 | 109
HPLM + 10% dialyzed FBS, 0.0632 µM | 118 | 118 | 115
HPLM + 10% dialyzed FBS, 0.19 µM | 100 | 120 | 118
HPLM + 10% dialyzed FBS, 0.569 µM | 117 | 107 | 101
HPLM + 10% dialyzed FBS, 1.71 µM | 31.8 | 68.4 | 25.6
HPLM + 10% dialyzed FBS, 5.12 µM | 83.6 | 109 | 108
HPLM + 10% dialyzed FBS, 15.4 µM | 35.5 | 110 | 108
HPLM + 10% dialyzed FBS, 46.1 µM | 10.3 | 99 | 86.1
RPMI 5 mM glucose + 10% FBS, 0.000781 µM | 113 | 118 | 121
RPMI 5 mM glucose + 10% FBS, 0.00234 µM | 123 | 124 | 123
RPMI 5 mM glucose + 10% FBS, 0.00702 µM | 115 | 128 | 122
RPMI 5 mM glucose + 10% FBS, 0.0211 µM | 117 | 117 | 109
RPMI 5 mM glucose + 10% FBS, 0.0632 µM | 108 | 120 | 111
RPMI 5 mM glucose + 10% FBS, 0.19 µM | 117 | 115 | 112
RPMI 5 mM glucose + 10% FBS, 0.569 µM | 115 | 124 | 97.3
RPMI 5 mM glucose + 10% FBS, 1.71 µM | 41.6 | 64.9 | 17.5
RPMI 5 mM glucose + 10% FBS, 5.12 µM | 98.3 | 109 | 100
RPMI 5 mM glucose + 10% FBS, 15.4 µM | 40.2 | 113 | 118
RPMI 5 mM glucose + 10% FBS, 46.1 µM | 8.53 | 89.2 | 80.5
RPMI 5 mM glucose + 10% dialyzed FBS, 0.000781 µM | 118 | 106 | 109
RPMI 5 mM glucose + 10% dialyzed FBS, 0.00234 µM | 105 | 117 | 131
RPMI 5 mM glucose + 10% dialyzed FBS, 0.00702 µM | 112 | 119 | 123
RPMI 5 mM glucose + 10% dialyzed FBS, 0.0211 µM | 119 | 118 | 104
RPMI 5 mM glucose + 10% dialyzed FBS, 0.0632 µM | 128 | 86.6 | 112
RPMI 5 mM glucose + 10% dialyzed FBS, 0.19 µM | 111 | 109 | 123
RPMI 5 mM glucose + 10% dialyzed FBS, 0.569 µM | 111 | 117 | 95.7
RPMI 5 mM glucose + 10% dialyzed FBS, 1.71 µM | 67.9 | 84.3 | 24.7
RPMI 5 mM glucose + 10% dialyzed FBS, 5.12 µM | 80.1 | 102 | 117
RPMI 5 mM glucose + 10% dialyzed FBS, 15.4 µM | 51 | 102 | 104
RPMI 5 mM glucose + 10% dialyzed FBS, 46.1 µM | 19.2 | 79.1 | 87.6

Cc1cc2c(C(N)=O)cccc2n1-c1nc2c(c(NCc3ccccc3)n1)COCC2
AUC of viability dose-response curve
Conditions | NOMO1 [3] | P12-Ichikawa [2] | SEM cells [1]
HPLM + 10% dialyzed FBS | 312 | 330 | 295
RPMI 5 mM glucose + 10% FBS | 315 | 322 | 310
RPMI 5 mM glucose + 10% dialyzed FBS | 293 | 334 | 312

cell viability [%]
Conditions | NOMO1 [6] | P12-Ichikawa [5] | SEM cells [4]
HPLM + 10% dialyzed FBS, 0.000781 µM | 117 | 99.5 | 89.6
HPLM + 10% dialyzed FBS, 0.00234 µM | 124 | 92.4 | 95.4
HPLM + 10% dialyzed FBS, 0.00702 µM | 101 | 92.2 | 73
HPLM + 10% dialyzed FBS, 0.0211 µM | 108 | 93.2 | 87.2
HPLM + 10% dialyzed FBS, 0.0632 µM | 114 | 99.8 | 93.5
HPLM + 10% dialyzed FBS, 0.19 µM | 103 | 89.6 | 93.3
HPLM + 10% dialyzed FBS, 0.569 µM | 85.5 | 78.4 | 84.9
HPLM + 10% dialyzed FBS, 1.71 µM | 25 | 85.9 | 38.7
HPLM + 10% dialyzed FBS, 5.12 µM | 4.02 | 2.18 | 3.03
HPLM + 10% dialyzed FBS, 15.4 µM | 3.66 | 2.06 | 2.9
HPLM + 10% dialyzed FBS, 46.1 µM | 3.75 | 3.98 | 3.03
RPMI 5 mM glucose + 10% FBS, 0.000781 µM | 89.3 | 99.6 | –
RPMI 5 mM glucose + 10% FBS, 0.00234 µM | 106 | 96.2 | –
RPMI 5 mM glucose + 10% FBS, 0.00702 µM | 92.9 | 95.5 | –
RPMI 5 mM glucose + 10% FBS, 0.0211 µM | 87.8 | 93.8 | –
RPMI 5 mM glucose + 10% FBS, 0.0632 µM | 99.8 | 91.2 | –
RPMI 5 mM glucose + 10% FBS, 0.19 µM | 98 | 94.6 | –
RPMI 5 mM glucose + 10% FBS, 0.569 µM | 81.6 | 81.7 | –
RPMI 5 mM glucose + 10% FBS, 1.71 µM | 44.1 | 63.1 | –
RPMI 5 mM glucose + 10% FBS, 5.12 µM | 3.08 | 2.37 | –
RPMI 5 mM glucose + 10% FBS, 15.4 µM | 3.4 | 1.97 | –
RPMI 5 mM glucose + 10% FBS, 46.1 µM | 3.91 | 2.61 | –
RPMI 5 mM glucose + 10% dialyzed FBS, 0.000781 µM | 92.9 | 95.9 | 94.5
RPMI 5 mM glucose + 10% dialyzed FBS, 0.00234 µM | 90.3 | 94.4 | 105
RPMI 5 mM glucose + 10% dialyzed FBS, 0.00702 µM | 92.4 | 95.6 | 85.5
RPMI 5 mM glucose + 10% dialyzed FBS, 0.0211 µM | 92.8 | 97.7 | 87.7
RPMI 5 mM glucose + 10% dialyzed FBS, 0.0632 µM | 91.2 | 96.3 | 101
RPMI 5 mM glucose + 10% dialyzed FBS, 0.19 µM | 100 | 95.4 | 99.4
RPMI 5 mM glucose + 10% dialyzed FBS, 0.569 µM | 73.3 | 91.8 | 95.8
RPMI 5 mM glucose + 10% dialyzed FBS, 1.71 µM | 20.6 | 72.9 | 24.1
RPMI 5 mM glucose + 10% dialyzed FBS, 5.12 µM | 3.21 | 2.73 | 3.45
RPMI 5 mM glucose + 10% dialyzed FBS, 15.4 µM | 2.75 | 2.42 | 3.44
RPMI 5 mM glucose + 10% dialyzed FBS, 46.1 µM | 2.84 | 2.96 | 3.1

Cc1csc(-c2nnc(Nc3ccc(Oc4ncccc4-c4ccnc(N)n4)cc3)c3ccccc23)c1
AUC of viability dose-response curve
Conditions | NOMO1 [3] | P12-Ichikawa [2] | SEM cells [1]
HPLM + 10% dialyzed FBS | 408 | 178 | 258
RPMI 5 mM glucose + 10% FBS | 334 | 191 | 211
RPMI 5 mM glucose + 10% dialyzed FBS | 357 | 226 | 226

cell viability [%]
Conditions | NOMO1 [6] | P12-Ichikawa [5] | SEM cells [4]
HPLM + 10% dialyzed FBS, 0.000781 µM | 106 | 107 | 104
HPLM + 10% dialyzed FBS, 0.00234 µM | 101 | 111 | 114
HPLM + 10% dialyzed FBS, 0.00702 µM | 113 | 104 | 114
HPLM + 10% dialyzed FBS, 0.0211 µM | 79 | 15.1 | 56
HPLM + 10% dialyzed FBS, 0.0632 µM | 95.3 | 16.6 | 46
HPLM + 10% dialyzed FBS, 0.19 µM | 89.3 | 14.6 | 48.9
HPLM + 10% dialyzed FBS, 0.569 µM | 99.5 | 19.1 | 45
HPLM + 10% dialyzed FBS, 1.71 µM | 86.7 | 23.2 | 42.1
HPLM + 10% dialyzed FBS, 5.12 µM | 72.6 | 20.1 | 32.5
HPLM + 10% dialyzed FBS, 15.4 µM | 76.3 | 18.7 | 36.5
HPLM + 10% dialyzed FBS, 46.1 µM | 84.1 | 22 | 34.2
RPMI 5 mM glucose + 10% FBS, 0.000781 µM | 99.9 | 104 | 108
RPMI 5 mM glucose + 10% FBS, 0.00234 µM | 111 | 116 | 100
RPMI 5 mM glucose + 10% FBS, 0.00702 µM | 97.5 | 106 | 102
RPMI 5 mM glucose + 10% FBS, 0.0211 µM | 53.2 | 22.3 | 55.2
RPMI 5 mM glucose + 10% FBS, 0.0632 µM | 45.9 | 20.1 | 25.5
RPMI 5 mM glucose + 10% FBS, 0.19 µM | 52.6 | 16.7 | 24.5
RPMI 5 mM glucose + 10% FBS, 0.569 µM | 75.1 | 20.3 | 23.9
RPMI 5 mM glucose + 10% FBS, 1.71 µM | 81.6 | 26.5 | 28.6
RPMI 5 mM glucose + 10% FBS, 5.12 µM | 65.9 | 26.4 | 18.7
RPMI 5 mM glucose + 10% FBS, 15.4 µM | 67.3 | 24.3 | 18.7
RPMI 5 mM glucose + 10% FBS, 46.1 µM | 74.1 | 24.9 | 21
RPMI 5 mM glucose + 10% dialyzed FBS, 0.000781 µM | 105 | 117 | 94
RPMI 5 mM glucose + 10% dialyzed FBS, 0.00234 µM | 103 | 109 | 107
RPMI 5 mM glucose + 10% dialyzed FBS, 0.00702 µM | 89.8 | 108 | 115
RPMI 5 mM glucose + 10% dialyzed FBS, 0.0211 µM | 60.3 | 27.8 | 36.4
RPMI 5 mM glucose + 10% dialyzed FBS, 0.0632 µM | 62 | 24.8 | 30
RPMI 5 mM glucose + 10% dialyzed FBS, 0.19 µM | 59 | 27.1 | 34
RPMI 5 mM glucose + 10% dialyzed FBS, 0.569 µM | 72.6 | 34.4 | 34.6
RPMI 5 mM glucose + 10% dialyzed FBS, 1.71 µM | 77.9 | 39.9 | 29.1
RPMI 5 mM glucose + 10% dialyzed FBS, 5.12 µM | 72.5 | 43.5 | 29.5
RPMI 5 mM glucose + 10% dialyzed FBS, 15.4 µM | 84.1 | 39.6 | 28.5
RPMI 5 mM glucose + 10% dialyzed FBS, 46.1 µM | 80.5 | 38.1 | 28.5
